Where two headings read alike, the source gives them in different places.
Experiments:
[1] = Cell death by Annexin-V-APC/PI flow cytometry; type: cell-based, human; conditions: CEM, 2h; read-out: cytotoxic concentration that induces around 50% of cell death (CC50)
Procedure: (§1) CEM, MOLT-4 (T-acute lymphoblastic leukemia, T-ALL), and L5178Y-R (murine lymphoblastic T cell line) were obtained from ATCC. Human and murine PBMCs, human CD4+ and CD8+ T cells, and primary lymphoid organ's cells were obtained from healthy individuals. Cells were maintained in RPMI-1640 medium supplemented with 10% of fetal bovine serum, 2 mM L-glutamine, 100 U/mL penicillin-streptomycin (GIBCO by Life Technologies, Grand Island, N.Y., USA), and incubated at 37° C. in a controlled humidified atmosphere with 5% CO2. Cell count was performed using trypan blue (0.4% Sigma-Aldrich), a Neubauer chamber and an optic microscope (Zeiss Primo Star) as proposed by the ATCC's standard protocols. Flow Cytometry. Cell Death Induction, and Inhibition Annexin-V-allophycocyanin (Ann-V-APC 0.1 μg/ml; BD Pharingen, San Jose Calif., USA), propidium iodide (PI, 0.5 μg/ml Sigma-Aldrich), and tetramethylrhodamine ethyl ester (TMRE, 20 nM, Sigma-Aldrich) were used for phosphatidylserine exposure, cell viability, and mitochondrial transmembrane potential (UΨm) quantification, respectively, in a BD AccuryC6 flow cytometer (BD Biosciences) (total population 10,000 cells). Data were analyzed using FlowJo software. 1×10^6 cells/mL were treated for 2h with PKHB1 (as indicated). For the inhibition assays, calcium chelator, BAPTA (5 mM, CalbioChem, Merck, Billerica Mass., USA); or the pancaspase inhibitor Q-VD-OPh (QVD, 10 μM, BioVision, Milpitas Calif., USA); were added 30 min before PKHB1.

CEM [2] = experiment: Cell death by Annexin-V-APC/PI flow cytometry; type: cell-based, human; conditions: 2h; for cell death percentage: PKHB1 200 μM
Procedure: as §1

[3] = Cell death by Annexin-V-APC/PI flow cytometry; type: cell-based; conditions: MOLT-4, 2h; read-out: cytotoxic concentration that induces around 50% of cell death (CC50)
Procedure: as §1

MOLT-4 [4] = experiment: Cell death by Annexin-V-APC/PI flow cytometry; type: cell-based; conditions: MOLT-4, 2h; for cell death percentage: PKHB1 200 μM
Procedure: as §1

[5] = Cell death by Annexin-V-APC/PI flow cytometry; type: cell-based, murine; conditions: L5178Y-R, 2h; read-out: cytotoxic concentration that induces around 50% of cell death (CC50)
Procedure: as §1

L5178Y-R [6] = experiment: Cell death by Annexin-V-APC/PI flow cytometry; type: cell-based, murine; conditions: 2h; for cell death percentage: PKHB1 200 μM
Procedure: as §1

CEM [7] = experiment: Loss of mitochondrial transmembrane potential (TMRE); type: cell-based, human; conditions: PKHB1 CC50, 2h
Procedure: as §1, with “For the inhibition assays, calcium chelator, BAPTA (5 mM, CalbioChem, Merck, Billerica Mass., USA); or the pancaspase inhibitor Q-VD-OPh (QVD, 10 μM, BioVision, Milpitas Calif., USA); were added 30 min before PKHB1.” left out

MOLT-4 [8] = experiment: as above; type: cell-based, human; conditions: PKHB1 CC50, 2h
Procedure: as §1, with “For the inhibition assays, calcium chelator, BAPTA (5 mM, CalbioChem, Merck, Billerica Mass., USA); or the pancaspase inhibitor Q-VD-OPh (QVD, 10 μM, BioVision, Milpitas Calif., USA); were added 30 min before PKHB1.” left out

[9] = test system: human PBMCs and CD4+ and CD8+ human T cells from healthy donors; experiment: Selectivity on non-cancerous human cells (Annexin-V/PI); type: cell-based
Procedure: Peripheral blood was collected from 10 healthy volunteers after obtaining written informed consent. This study was approved by the Institutional Ethics Committee at the Universidad Autonoma de Nuevo Leon, College of Biological Sciences. The animal study was approved by the Animal Ethical Committee (CEIBA), Number: 01/2015. All experiments were conducted according to Mexican regulation NOM-062-ZOO-1999. The blood from sacrificed mice was obtained by cardiac puncture, while human blood was collected by venipuncture. Peripheral blood mononuclear cells (PBMCs) isolation was performed by density gradient centrifugation using Ficoll-Hypaque-1119 (Sigma-Aldrich, St Louis, Mo., USA). 4×10^5 white blood cells were washed and seeded. […]
CEM, MOLT-4 (T-acute lymphoblastic leukemia, T-ALL), and L5178Y-R (murine lymphoblastic T cell line) were obtained from ATCC. […] Cell Death Induction, and Inhibition Annexin-V-allophycocyanin (Ann-V-APC 0.1 μg/ml; BD Pharingen, San Jose Calif., USA), propidium iodide (PI, 0.5 μg/ml Sigma-Aldrich), and tetramethylrhodamine ethyl ester (TMRE, 20 nM, Sigma-Aldrich) were used for phosphatidylserine exposure, cell viability, and mitochondrial transmembrane potential (UΨm) quantification, respectively, in a BD AccuryC6 flow cytometer (BD Biosciences) (total population 10,000 cells). Data were analyzed using FlowJo software. […]

CEM [10] = experiment: HMGB1 release assay (ELISA); type: cell-based, human; conditions: PKHB1 CC100, 2h
Procedure: (§2) Supernatants of untreated and treated (PKHB1 CC50 and CC100 for each cell line) leukemic cells (1×10^6 cells/mL) were used to measure extracellular HMGB1 using the HMGB1 ELISA kit for CEM, MOLT-4 or L5178Y-R cells (BioAssay ELISA kit Human or mouse respectively, US biological Life Science Salem, Mass., USA), following the manufacturer instructions. Absorbance was assessed at 450 nm.

MOLT-4 [11] = experiment: HMGB1 release assay (ELISA); type: cell-based, human
Procedure: as §2

L5178Y-R [12] = experiment: ATP release assay (luciferase bioluminescence); type: cell-based, murine; conditions: CC50 and CC100, 2h
Procedure: 1×10^6 cells/mL were treated with PKHB1 (CC50 and CC100 for each cell lines) for 2h. Supernatants were used to assess extracellular ATP by a luciferase assay (ENLITEN kit, Promega, Madison Wis., USA) following the manufacturer's instructions. Bioluminescence was assessed in a microplate reader (Synergy HT, BioTek, Software Gen5, Winooski, Vt., USA) at 560 nm.

L5178Y-R tumor = experiment: Long-term memory assay, rechallenge of mice in remission after PKHB1 treatment; type: in vivo, BALB/c mice; conditions: mice with complete regression after PKHB1-treatment, rechallenged with 2×10^6 L5178Y-R viable cells
Procedure: Six-to-eight-week-old BALB/c female mice were maintained in controlled environmental conditions (25° C. and 12h light/dark cycle) and were supplied with rodent food (Science diet) and water ad libitum. • Prophylactic vaccinations: L5178Y-R cells (1.5, 3, 5×10^6) were treated with 300 μM of PKHB1 (CC100) for 2h. Cell death was confirmed using trypan blue staining and flow cytometry. Treated cells were inoculated subcutaneously in 100 μl PBS into the left hind of the leg, whereas 2×10^6 untreated control cells were inoculated into the right hind 7 days later (42). • Tumor establishment and measurement: Tumor was established by the subcutaneous injection of 1×10^6 L5178Y-R cells in 100 μL PBS, into the left hind of the leg. Tumor volume and weight were measured three times per week using a caliper (Digimatic Caliper Mitutoyo Corporation, Japan) and a digital scale (American Weigh Scale-600-BLK, USA). When the tumor reached 100 mm^3 the first PKHB1 injection (200 μg) was applied (day 0). Tumor volume was determined with the formula: tumor volume (mm3)=[…]*A*B*C. Long-term memory assay: Mice in complete remission after PKHB1 treatment, were rechallenged with 2×10^6 cells in 100 μL of PBS, into the opposite limb, and tumor volume was measured like described above.

[13] = pre-incubated 30 min with Ca2+ chelator BAPTA
[14] = pre-incubated 30 min with pan-caspase inhibitor Q-VD-OPH

## CSCC[C@H](NC(=O)[C@@H](NC(=O)[C@@H](NC(=O)[C@H](Cc1ccc(O)cc1)NC(=O)[C@H](Cc1ccccc1)NC(=O)[C@H](CCCNC(=N)N)NC(=O)[C@H](N)CCCCN)C(C)C)C(C)C)C(=O)N[C@@H](Cc1c[nH]c2ccccc12)C(=O)N[C@@H](CCCCN)C(=O)N[C@H](CCCCN)C(=O)O [PKHB1, (D)K-R-F-Y-V-V-M-W-K-(D)K]
[1]
  CC50: 200 µM
CEM [2]; 100, 200 and 300 μM
  cell death (Ann-V-APC/PI positive cells): concentration-dependent
CEM [2]; left alone
  cell death percentage: 51%±4
CEM [2]; [13]
  cell death percentage: 18%±11
CEM [2]; [14]
  cell death percentage: 48%±5
[3]
  CC50: 300 µM
MOLT-4 [4]; 100, 200 and 300 μM
  cell death (Ann-V-APC/PI positive cells): concentration-dependent
MOLT-4 [4]; left alone
  cell death percentage: 57%±4
MOLT-4 [4]; [13]
  cell death percentage: 38%±3
MOLT-4 [4]; [14]
  cell death percentage: 51%±6
[5]
  CC50: 200 µM
L5178Y-R [6]; 100, 200 and 300 μM
  cell death (Ann-V-APC/PI positive cells): concentration-dependent
L5178Y-R [6]
  CC100: 300 µM
L5178Y-R [6]; left alone
  cell death percentage: 52%±5
L5178Y-R [6]; [13]
  cell death percentage: 21%±8
L5178Y-R [6]; [14]
  cell death percentage: 49%±3
CEM [7]
  loss of mitochondrial membrane potential: 49%±5
MOLT-4 [8]
  loss of mitochondrial membrane potential: 61%±4
[9]
  cell viability of non-cancerous cells: did not significantly affected cell viability
CEM [10]
  HMGB1 release compared to the untreated control: 6 fold
MOLT-4 [11]; PKHB1 CC50, 2h
  HMGB1 release with respect to the control: 8 fold
MOLT-4 [11]; PKHB1 CC100, 2h
  HMGB1 release compared to the untreated control: 4 fold
L5178Y-R [12]
  presence of ATP in supernatants: significantly augmented
L5178Y-R tumor
  rechallenged mice that developed the tumor: ≈ 17%
  survival of re-challenged mice (Kaplan-Meier): 90%
